Laboratory results: publication PMC11357992, “Non-invasive mapping of systemic neutrophil dynamics upon cardiovascular injury” (Nature Cardiovascular Research, 2023)
“And” between values parts separate entries of the source, which are not always exact repeats. Equal values may be shown once. Where no end group is shown, it is not given here. Side-chain parts run from the residue outwards. rhodamine‑labelled PEGylated perfluoro‑15‑crown‑5 ether nanoemulsion = not defined here; carboxyfluorescein = N-terminal fluorescence label (CF)

What was measured:
[1] = tested on: human lymphocytes, monocytes or neutrophils; assay: Uptake of hNPPFCs/ConPFCs by human blood immune cells, flow cytometry; type: cell-based; conditions: for uptake by lymphocytes, raw data (flow cytometry): human lymphocytes; for uptake by lymphocytes, raw data (flow cytometry) / uptake by monocytes, raw data (flow cytometry): single samples #1-#4; for uptake by monocytes, raw data (flow cytometry): human monocytes
Experimental: Blood was collected from the vena brachialis, and erythrocytes were lysed as described above. After 10 min of incubation, samples were centrifuged at 350g for 10 min at 20 °C. For isolation of a purified neutrophil fraction, density gradient centrifugation was performed. Five milliliters of Ficoll 1.077 (Sigma-Aldrich) was layered on 5 ml Ficoll 1.119 (Sigma-Aldrich), and 20 ml of whole blood diluted 1:2 with PBS was carefully layered on the Ficoll 1.077. Samples were centrifuged at 350g for 20 min with low acceleration and brake. The neutrophil layer was isolated by careful aspiration and washed with PBS. Isolated cells were resuspended in MACS buffer.
Human immune cells were discriminated by staining for CD45 (BioLegend, clone HI30), CD11b (BD Biosciences, clone ICRF44), CD14 (BioLegend, clone M5E2) and CD16 (BD Biosciences, clone 3G8) (lymphocytes, CD45^+CD11b^−CD16^−; classical monocytes, CD45^+CD11b^+CD14^++CD16^−; non-classical monocytes, CD45^+CD11b^+CD14^+CD16^++; neutrophils, CD45^+CD11b^+CD16^+). Murine immune cells were discriminated by staining for CD45 (BD Biosciences, clone 30-F11), CD11b (BioLegend, clone M1/70), Ly6G (BD Biosciences, clone 1A8), Ly6C (BioLegend, clone HK1.4) and F4/80 (BioLegend, clone BM8) (lymphocytes, CD45^+CD11b^−Ly6G^−; classical monocytes, CD45^+CD11b^+Ly6G^−Ly6C^hi; non-classical monocytes, CD45^+CD11b^+Ly6G^−Ly6C^lo; neutrophils, CD45^+CD11b^+Ly6G^+; eosinophils, CD45^+CD11b^+Ly6G^+SSC^hiFSC^lo). Both human and murine cells were stained for 20 min at 4 °C, followed by washing with 200 µl MACS buffer.
If not mentioned otherwise, neutrophil-specific peptide or Con (both at 1 µg ml^−1) were incubated for 20 min at 4 °C, while ^NPPFCs or ^ConPFCs were incubated at a concentration of 10 µl ml^−1 for the indicated period of time, followed by two washing steps with 200 µl MACS buffer.
A total of 1 × 10^6 cells were incubated with 10 µl of the emulsion over a period of 80 min at 37 °C. At distinct time points, 50 µl of the samples were transferred into 2 ml of ice-cold MACS buffer and analyzed for rhodamine fluorescence by flow cytometry.
Extended Data Fig. 8 Physicochemical properties and cellular uptake of ^hNPPFCs. a, Cellular uptake of ^hNPPFCs by human monocyte subsets and neutrophils: Human immune cells isolated from the blood of healthy volunteers were incubated with ^hNPPFCs. Subsequently, cells were stained with CD11b, CD14 and CD16 to differentiate between neutrophils (red), classical monocytes (gray) and non-classical monocytes (blue) and the cells were analyzed by flow cytometry. The cellular uptake of ^hNPPFCs was determined under unstimulated conditions (top) and after treatment with 1 µg/ml LPS (bottom). b, Physicochemical properties of the generated nanotracers: Characterization of size, size distribution and ζ potential of ^MalPFCs and targeting PFCs (^hNPPFCs, ^ConPFCs) by dynamic light scattering (DLS). The rhodamine fluorescence signal of the PCS was determined by IVIS imaging and the ^19F content by ^19F MRI. c-e, Cryo transmission electron microscopy of the generated nanotracers: c, Cryo transmission electron microscopy (cryo-TEM) of ^hNPPFCs and ^ConPFCs. Graphs: The diameter of the PFCs was determined manually from three images categorized into 25 nm groups. […] Data are derived from three images for ^hNPPFCs and ^ConPFCs each. d, Box plot (box and whiskers; min to max) of the diameter of ^ConPFCs/^hNPPFCs calculated from cryo-TEM images. e, Relative amount of liposomes (%) in individual cryo-TEM images. The number of PFCs and liposomes was manually determined (n = 4/5 images). Red arrows in the cryo-TEM images indicate liposomes. Data are mean values ± SD of n = 5-6 (a), n = 3-6 (b), n = 3 (c), n = 3 (d) and n = 6 (e) independent experiments; *** = p < 0.001, verified by one-way ANOVA (a). Source data

infarcted heart = assay: Cardiac 19F MRI signal after MI (in vivo, time course, correlation with LGE); set-up: species or system mouse
Experimental: For labeling of neutrophils before MI, mice were anesthetized (1.5% isoflurane) and 1 mmol per kg BW PFCs were injected intravenously via the tail vein on 3 consecutive days. Induction of MI was essentially carried out as previously described. For inhibiting the egress of neutrophils from the bone marrow in a subset of experiments, a cocktail of neutralizing antibodies was injected i.p. 1 h before and 4 h after MI (CXCL1, CXCL2, G-CSF, GM-CSF, 50 µg each, Thermo Fisher). To generate neutropenic mice, 48 and 24 h before MI, 500 µg of the Ly6G-depletion antibody (BioXcell, clone 1A8) was injected i.p. in independent experiments.
All experiments were performed with a vertical 9.4 T Bruker AVANCE^III Wide Bore NMR spectrometer (Bruker) driven by ParaVision 5.1 and operating at frequencies of 400.21 MHz for ^1H measurements and 376.54 MHz for ^19F measurements using a Bruker microimaging unit, Micro2.5, with actively shielded gradient sets (1.5 T m^−1). Data were acquired using a 25-mm quadrature ^19F resonator with one channel tunable to both ^1H and ^19F. Mice were anesthetized with 1.5% isoflurane and kept at 37 °C. After acquisition of morphological ^1H images, the resonator was tuned to ^19F, and anatomically matching ^19F images were recorded essentially as described previously.
Images of mouse hearts were acquired in short-axis orientation using a retrospectively triggered fast low-angle shot cine sequence (IntragateFLASH, Bruker) as described previously. Thereafter, hearts were excised, washed and fixed with PFA for 3D high-resolution post-mortem MRI: ^1H FISP, TR = 4 ms, FOV = 1.00 × 1.00 × 1.00 cm³, matrix = 128 × 64 × 128, tAcq 151 min; ^19F RARE, TR = 2,500 ms, FOV = 1.00 × 1.00 × 1.00 cm³, matrix = 32 × 32 × 32, tAcq = 10 h.

hNPPFCs: PEGylated rhodamine-labeled perfluorocarbon nanoemulsion coupled with human neutrophil-specific peptide hNP (carboxyfluorescein-DLVTSKLQVGGGC; also: C-terminal Cys coupled via maleimide-PEG2000-DSPE to rhodamine-labelled perfluorocarbon nanoemulsion)
uptake by neutrophils, Ctrl - hNPPFCs, raw data ([1]; Ctrl donors, time 0, single samples #1-#8): 68.6 and 64 and 91.8 and 102 and 91.2 and 87.9 and 78.2 and 76.6 | uptake by human monocytes and their subtypes, flow cytometry ([1]; also under LPS stimulation (1 µg/ml)): only minor uptake | uptake by lymphocytes, raw data (flow cytometry) ([1]; incubation 0 min): 14.8 and 22.7 and 17.1 and 13 | uptake by lymphocytes, raw data (flow cytometry) ([1]; incubation 40 min): 125 and 107 and 139 and 206 | uptake by lymphocytes, raw data (flow cytometry) ([1]; incubation 80 min): 149 and 177 and 157 and 227 | uptake by monocytes, raw data (flow cytometry) ([1]; incubation 0 min): 41.4 and 45.1 and 42.3 and 29.9 | uptake by monocytes, raw data (flow cytometry) ([1]; incubation 10 min): 285 and 252 and 274 and 459 | uptake by monocytes, raw data (flow cytometry) ([1]; incubation 20 min): 318 and 557 and 425 and 621 | uptake by monocytes, raw data (flow cytometry) ([1]; incubation 40 min): 616 and 798 and 629 and 741 | uptake by monocytes, raw data (flow cytometry) ([1]; incubation 80 min): 938 and 1088 and 771 and 1126 | uptake by neutrophils, raw data (flow cytometry) ([1]; human neutrophils, incubation 0 min, single samples #1-#9): 76.6 and 91.8 and 102 and 91.2 and 87.9 and 78.2 | binding to human lymphocytes, flow cytometry ([1]; immune cells from human blood): no binding to lymphocytes | binding to human neutrophils, flow cytometry ([1]; immune cells from human blood): avidly bound to neutrophils | human neutrophils labeled by hNPPFCs ([1]; of all human neutrophils in the authors' samples (CD177 not present on all)): 50–60%

mNPPFCs: PEGylated rhodamine-labeled perfluoro-15-crown-5 ether nanoemulsion (maleimide PFCs) coupled with murine neutrophil-specific peptide mNP (carboxyfluorescein-DFYKPMPNLRITGGGC([maleimide‑PEG2000‑DSPE-rhodamine‑labelled PEGylated perfluoro‑15‑crown‑5 ether nanoemulsion]); reading uncertain; also: printed as DFYKPMPNLRIT-GGG-C)
fluorine signal (infarcted heart; cardiac 19F MRI after MI, paired with infarct size (correlation), panel A raw data, single animals): 1143260.00 and 189700.00 and 404383.00 and 657147.00 and 1197310.00 and 718148.00 | cardiac 19F signal, Sham (infarcted heart; in vivo 19F MRI, Sham (substance not given), single animals): 79451 and 78829 and 92374 and 48275 and 58581 and 66158 | cardiac 19F signal after MI (infarcted heart; in vivo 19F MRI, mice with MI, panel C raw data, single animals): 325890 and 570535 and 698329 and 580045 and 224755 and 325233 and 312147 and 344837 and 567674 and 107303 and 326458 and 189700 and 404383 and 657147 and 718148 | cardiac 19F signal, 1h (infarcted heart; time course after MI, 1h, panel B raw data, single animals #1-#6): 153579.00 and 401063.98 and 321133.97 and 254881.37 and 314977.20 and 322448.95 | cardiac 19F signal, 3h (infarcted heart; time course after MI, 3h, single animals): 445129.00 and 539772.19 and 408267.20 and 394516.08 and 617532.55 | cardiac 19F signal, 6h (infarcted heart; time course after MI, 6h, single animals): 643519.00 and 466668.95 and 433563.34 and 788134.14 and 582620.85 | cardiac 19F signal, 24h (infarcted heart; time course after MI, 24h, single animals): 1143260.00 and 608391.86 and 841920.06 and 1092840.00 and 1200290.00 and 913025.41 | cardiac 19F signal, 48h (infarcted heart; time course after MI, 48h, single animals): 563325.00 and 546371.63 and 835937.39 and 937854.02 and 656412.62 | cardiac 19F signal, 72h (infarcted heart; time course after MI, 72h, single animals): 589807.00 and 491276.01 and 1221090.00 and 1312800.00 and 804982.61
